Like-named read-outs stand apart in the source and are kept apart here.

This is an account of results in patent US20120121723A1, “Antimicrobial Compositions” (priority 2005, published 2012).

For one assay, the system named is E. coli. Description: microbe, parasite or virus in culture. The class given is cell-based, Escherichia coli. Particulars: for MIC: Escherichia coli. From the text:
(§1) MIC testing and synergistic effects studies. The microorganisms were clinically obtained isolates. Staphylococcus aureus is a clinically significant member of the gram-positive group of bacterial pathogens. It gives rise to serious infections, and can produce bacteremia, endocarditis, and meningitis. Methicillin-resistant strains of Staphylococcus aureus (MRSA) were chosen for evaluation because they are a significant medical problem, particularly in view of the fact that methicillin is a drug of choice for treatment of S. aureus infection in the common penicillin-resistant strains. Escherichia coli was also chosen for evaluation. E. coli is a gram-negative pathogenic enterobacteriaceae, and is commonly used as a model organism for bacteria in general. The E. coli strain O157:H7, one of hundreds of strains of the bacterium E. coli, causes illness in humans.
(§2) All individual components are present in the combination at a starting point of 10,000 μg/mL, or 1% unless otherwise noted in the parenthesis in the attached tables. Combinations are serially diluted to obtain the MIC. […]
(§3) Abbreviations in Tables 2 and 3 are as follows. MIC is the Minimum Inhibitory Concentration. MRSA is Methicillin-resistant Staphylococcus Aureus. E. coli is Escherichia coli. […] Pluronic® F127 is Pluronic® F127 microemulsion.
(§4) The Minimum Inhibitory Concentrations (MIC) were determined using tube dilution sensitivities. […] The cultures were incubated overnight at 37° C. and MICs were recorded. The MIC was determined as the lowest concentration of a combination which prevented visible microorganism growth (e.g., turbidity). A culture growth control without compound and several culture sensitive reference agents were used as positive controls. The assays were performed in triplicate.
(§5) Dilutions of the compositions were added to bacterial growth media (tryptic soy broth) to result in a set of tubes with a concentration range of 0.001 mg/L-1000 mg/L of the combination.
(§6) QB is the ppm (MIC) of active substance B alone which produces an endpoint. QC is the ppm (MIC) of active substance C alone which produces an endpoint. Qa is the ppm (MIC) of active substance A, in the combination, which produces an endpoint. Qb is the ppm (MIC) of active substance B, in the combination, which produces an endpoint. Qc is the ppm (MIC) of active substance C, in the combination, which produces an endpoint. And so on for Qn components.
(§7) If the SI of Qa/QA+Qb/QB+Qc/QC is less than one, synergy is indicated. A value greater than one indicates antagonism. A value equal to one indicates additivity.

In the next assay the test system is MRSA. Description: MIC by tube dilution and Kull synergy index against MRSA. The class given is cell-based, Staphylococcus aureus. The following applies: for MIC: Staphylococcus aureus.
Source text: as §1, §2, §3, §4, §5, §6, §7

A further assay has as its system resistant E. coli. The assay is described as follows: Additional synergy testing: combination plus 0.5X MIC of an antibiotic. It counts as cell-based, Escherichia coli.
Where [1] appears, read: Table 3, MIC of Component 1 alone against E. coli, read-out: 1-MIC-.
Setting [2] is: Table 3, MIC of Component 2 alone against E. coli, read-out: 2-MIC-.
[3] abbreviates: Table 2, MIC of Component 2 alone against MRSA.
Where [4] appears, read: Table 2, MIC of Component 1 alone against MRSA, read-out: 1-MIC-.
The mark [5] stands for this setting: Table 2, MIC of Component 2 alone against MRSA, read-out: 2-MIC-.
[6] abbreviates: Table 2, MIC of Component 3 alone against MRSA.

`CC(=O)c1c(O)c(C)c(O)c2c1OC1=CC(=O)C(C(C)=O)C(=O)C12C` (stereo not shown) [Usnic Acid, usnic acid]: the MIC in the assay with E. coli (setting [1]) turned out to be 1000 µg/mL; in the assay on E. coli (setting [2]) it was 1000 µg/mL; in the assay on MRSA (MRSA, read-out: 1-MIC-), 6.25 µg/mL; in the assay on MRSA (MRSA, read-out: 2-MIC-), 6.25 µg/mL; in the assay on MRSA (MRSA, read-out: 2-MIC-MRSA), 6.25 µg/mL.

Turning to `OCC1CCCO1` (stereo not shown) [THFA, tetrahydrofurfuryl alcohol], the MIC with MRSA (MRSA, read-out: Other-MIC-) was 500 µg/mL.

In the case of `C=CCN=C=S` [Allyl isothiocyanate, allyl isothiocyanate], the MIC with E. coli (setting [1]) was 1000 µg/mL; in the assay on E. coli (setting [2]), 1000 µg/mL; in the assay with MRSA (MRSA, read-out: 1-MIC-), 1000 µg/mL; with MRSA (MRSA, read-out: 2-MIC-) it was 1000 µg/mL; in the assay with MRSA (MRSA, read-out: 2-MIC-MRSA) it was 1000 µg/mL.

For the compound `CN(C)[C@@H]1C(=O)C(C(N)=O)=C(O)[C@@]2(O)C(=O)C3=C(O)c4c(O)cccc4[C@@](C)(O)[C@H]3C[C@@H]12` [tetra, tetracycline], in the assay on resistant E. coli, the “MIC Ab alone (B) QB” value came out at 400 µg/mL.

As to `CCCCCCCCO[C@@H]1O[C@H](CO)[C@@H](O)[C@H](O)[C@H]1O` [Octyl glucoside, octyl glucoside], in the assay on MRSA (setting [3]), the 2-MIC- was found to be 1001 ppm.

Turning to `CCCCCCCCCCCCN(CCCN)CCCN` [N,N-bis(3-aminopropyl)-dodecylamine, N,N-bis-(3-aminopropyl)dodecylamine], the MIC in the assay on E. coli (setting [1]) was determined as 25 µg/mL; in the assay on E. coli (setting [2]), 25 µg/mL; in the assay on MRSA (setting [4]), 12.5 µg/mL; in the assay with MRSA (setting [5]), 12.5 µg/mL.

For `C=C(C)[C@H]1CC=C(C)CC1` [Limonene, limonene], the 1-MIC- in the assay with E. coli (Table 3, MIC of Component 1 alone against E. coli) is 1000 ppm; in the assay on MRSA (Table 2, MIC of Component 1 alone against MRSA), 1001 ppm. For the same compound, the 2-MIC- is 1001 ppm with E. coli (Table 3, MIC of Component 2 alone against E. coli) and 1001 ppm in the assay with MRSA (setting [3]). The 1-MIC-MRSA in the assay with MRSA (Table 5, Comp. 1 alone) was found to be 1001 ppm.

Turning to gentamicin, in the assay on resistant E. coli, the “MIC Ab alone (B) QB” value was 100 µg/mL.

`O=C(O)c1ccccc1O` [Salicylic acid, salicylic acid]: the MIC with E. coli (Table 3, MIC of Component 3 alone against E. coli, read-out: 3-MIC-) worked out at 1000 µg/mL; in the assay on MRSA (MRSA, Table 5, Component 3 alone, read-out: 3-MIC-MRSA), 1000 µg/mL; in the assay on MRSA (Table 2, MIC of Component 3 alone against MRSA, read-out: 3-MIC-) it was 1000 µg/mL.

Consider `[O-][n+]1ccccc1S` [Pyrithione, pyrithione], for which the MIC in the assay with E. coli (read-out: 2-MIC-) came to 6.25 µg/mL; in the assay with MRSA (MRSA, read-out: 2-MIC-), 0.79 µg/mL; with MRSA (MRSA, read-out: 2-MIC-MRSA), 0.79 µg/mL.

As for 2-hydroxypropyl-α-cyclodextrin, in the assay with MRSA (setting [6]), the 3-MIC- worked out at 1001 ppm. Besides, the 3-MIC-MRSA with MRSA (Table 5, Component 3 alone) came to 1001 ppm.

Take `CN(C)c1ccc2nc3ccc(=[N+](C)C)cc-3sc2c1` [Methylene blue, methylene blue]: the figures for the MIC in the assay on E. coli (setting [1]), in the assay with E. coli (setting [2]) and in the assay with MRSA (setting [5]) were 1000 µg/mL, 1000 µg/mL and 25 µg/mL, respectively.

Regarding `O=C(/C=C/C=C/c1ccc2c(c1)OCO2)N1CCCCC1` [Piperine, piperine], the MIC in the assay with E. coli (setting [1]) was found to be 1000 µg/mL; in the assay on E. coli (setting [2]), 1000 µg/mL; in the assay on MRSA (MRSA, read-out: 1-MIC-) it was 1000 µg/mL; in the assay on MRSA (MRSA, read-out: 2-MIC-), 1000 µg/mL; in the assay on MRSA (MRSA, read-out: 2-MIC-MRSA), 1000 µg/mL.

For `C[C@H]1c2cccc(O)c2C(O)=C2C(=O)[C@]3(O)C(O)=C(C(N)=O)C(=O)[C@@H](N(C)C)[C@@H]3[C@@H](O)[C@@H]21` [doxy, doxycycline], the “MIC Ab alone (B) QB” value in the assay with resistant E. coli came out at 50 µg/mL.

As to `CC(O)(P(=O)(O)O)P(=O)(O)O` [HEDP, 1-hydroxyethylidene-1,1-diphosphonic acid], the 3-MIC- turned out to be 1001 ppm with E. coli (Table 3, MIC of Component 3 alone against E. coli) and 1001 ppm in the assay with MRSA (setting [6]). Further, the 3-MIC-MRSA with MRSA (Table 5, Component 3 alone) is listed as 1001 ppm.

For `Oc1cccc2cccnc12` [8-hydroxyquinoline], the MIC in the assay with E. coli (read-out: 3-MIC-) was found to be 50 µg/mL; in the assay on MRSA (MRSA, read-out: 3-MIC-), 1.56 µg/mL; with MRSA (MRSA, read-out: 3-MIC-MRSA), 1.56 µg/mL.

With `O=C(O)CN(CCN(CC(=O)O)CC(=O)O)CC(=O)O.[K]` [Sample K2EDTA, potassium ethylenediaminetetraacetic acid], the MIC in the assay with E. coli (read-out: 3-MIC-) is 1000 µg/mL; in the assay with MRSA (MRSA, read-out: 3-MIC-) it was 500 µg/mL; with MRSA (MRSA, read-out: 3-MIC-MRSA) it was 500 µg/mL.

As to `C=CC(C)(O)CCC=C(C)CCC=C(C)C` (stereo not shown) [Nerolidol, nerolidol], the MIC in the assay on E. coli (setting [1]) is 1000 µg/mL; with MRSA (MRSA, Table 5, Comp. 1 alone, read-out: 1-MIC-MRSA), 500 µg/mL; with MRSA (setting [4]), 500 µg/mL.
